Where two headings read alike, the source gives them in different places.
Legend:
rats [1] = assay: Anti-inflammatory activity: carragenic test (carragenine-induced edema of the hind leg); type: in vivo, male rats; details: Rattus norvegicus, oral, read-out: ED 50
Protocol: All products were administered in gummy julep except No. 1 and No. 13 which were administered in suspension in Tween. The anti-inflammatory activity was determined by the carragenic test with male rats. Inflammation was induced by the injection of 0.1 ml of a 0.5% suspension of carragenine in a physiological serum into the muscular fasciculus of the metatarsal region of the hind leg of the animal. The substance to be tested was orally administered simultaneously with the carragenine. The edema was measured by phethysmography 1, 2, 3, 4, 5 and 6 hours after the administration of the carragenine.
**50 mg/kg No. 13 which were administered in suspension in Tween.

mice = assay: Analgesic activity: protection against abdominal twisting induced by phenylbenzoquinone (PBQ); type: in vivo; details: Mus musculus, oral, read-out: AD 50 (the source's name)
Protocol: All products were administered in gummy julep except No. 1 and No. 13 which were administered in Tween. The analgesic activity were determined in mice by utilizing as a nociceptive agent, phenylbenzoquinone (PBQ) (modification of the method by Siegmund and co-workers Proc. Soc. Exp. Biol. Med. 1957, 95, 729-31). The process consists of seeking a possible protection for the mouse vis-a-vis abdominal twisting and stretching of the hind legs induced by the parental injection of PBQ. 25 minutes after having orally administered the products to be tested in suspension in 2% Tween 80 or in 6% gummy julep, the PBQ solution was injected and the mice were observed after 5 minutes during the following 5 minutes. For certain products, AD 50 is presented as a measure of activity. […]

[2] = Oral toxicity in mice (LDO, LD50); type: in vivo; details: mouse, in vivo, gummy julep (No. 1 and 13 in Tween), 2 weeks observation
Protocol: This toxicity is estimated by the calculation of the lethal dose of 50 (LD 50) which determines the fatal dose of the substance for 50% of the animals tested. This determination was effected in accordance with a modification of the method by Litchfield and Wilcoxon (J. Pharmacol. Exp. Therap. 1949, 96, 99-113).
Swiss mice without specific pathogenic organisms were kept in air conditioned rooms 24 to 48 hours before the start of the tests. They were divided into batches of 5.male. and 5.female.. With the animals unfed for 24 hours, the substances were intragastically administered in suspension in 2% Tween 80 or in 6% gummy julep in a volume equivalent to 0.1 ml per 10 g of the weight of the animal.
They remained under observation for two weeks before being killed and subjected to an autopsy.
All products were administered in gummy julep except No. 1 and No. 13 which were administered in Tween. The analgesic activity were determined in mice by utilizing as a nociceptive agent, phenylbenzoquinone (PBQ) (modification of the method by Siegmund and co-workers Proc. Soc. Exp. Biol. Med. 1957, 95, 729-31). The process consists of seeking a possible protection for the mouse vis-a-vis abdominal twisting and stretching of the hind legs induced by the parental injection of PBQ. 25 minutes after having orally administered the products to be tested in suspension in 2% Tween 80 or in 6% gummy julep, the PBQ solution was injected and the mice were observed after 5 minutes during the following 5 minutes. For certain products, AD 50 is presented as a measure of activity.

rats [3] = assay: Ulcerous activity (modified method of Colot); type: in vivo, female EOPS rats; details: 83 mg/kg oral daily
Protocol: Ulcerous activity was determined according to a modification of the method by Colot (Technical notions of general pharmacology, 1972) in the case of femal EOPS rats of approximately 150 g. The animals were left without absolutely any food, while the test products were orally administered on a daily basis in suspension in 2% Tween at a volume of 0.5 ml/100 g. The animals were killed under chloroform and the stomachs were removed. Ulcerous activity was established by means of an index taking into account the degree of ulceration and the percentage of animals effected.
In the table given below, a comparison is shown between the results obtained with niflumic acid and product No. 1.

Compound: O=C(O)c1cccnc1Nc1cccc(C(F)(F)F)c1 [Niflumic acid]
- ED50 (rats [1]; 2H): 34 mg/kg
- ED50 (rats [1]; 4H): 125 mg/kg
- ED50 (mice): 17 mg/kg
- LD50 at 336 h [2]: ~350 mg/kg
- IA: Acute ulceration index (rats [3]; 1 day): 8
- IC: Ulceration index on the way of cicatrization (rats [3]; 1 day): 380
- IT: Total index (rats [3]; 1 day): 388
- IA: Acute ulceration index (rats [3]; 3 days): 16
- IC: Ulceration index on the way of cicatrization (rats [3]; 3 days): 206
- IT: Total index (rats [3]; 3 days): 222

Reference: patent US4122202A, “Amino-3H-isobenzofuranones N-substitutes and their therapeutic application” (Societe Cortial, priority 1975, dated 1978)
